Where two headings read alike, the source gives them in different places.
Key:
[1] = Stability of crystalline form A of I-1 (X-ray powder diffraction after high temperature, high humidity, light); type: physicochemical
[2] = test system: arteriovenous bypass thrombosis in rats; assay: Test of effect of compounds on arteriovenous bypass thrombosis in rats; type: in vivo, SD rats; design: Dry weight of thrombus (%): unit not given here; conditions: for Inhibition rate (%): dry weight of thrombus; for Inhibition rate (%) / Dry weight of thrombus (%): rats; for Dry weight of thrombus (%): loop opened 2.5 h after administration, 15 min
[3] = 1 μM
Description: Plasma samples (double sample) containing 1 μM of the compounds of the present invention, clopidogrel hydrogen sulfate (LBGL), 2-oxo product (2-Oxo) were prepared from human blank plasma, and incubated at 37° C. 50 μL of the above incubated plasma samples were taken at different time points, and 100 μL of precipitant (acetonitrile:methanol=7:3) and 50 μL of internal standard were added. The mixture was vortexed for 1 min and centrifuged for 10 min. 100 μL of the supernatant was taken into an inner inserted tube, centrifuged for 5 min, and injected for LC-MS/MS analysis.
Preparation of blank control sample (PPT-0): 100 μL of frozen human blank plasma was taken, to which 195 μL of acetonitrile and 100 μL of internal standard were added, followed by 5 μL of the compound of the present invention, clopidogrel or 2-oxo product (20 μM). The mixture was vortexed for 1 min and centrifuged for 10 min. 100 μL of the supernatant was taken into an inner inserted tube, centrifuged for 5 min, and injected for LC-MS/MS analysis.

[4] = test system: bleeding time of amputated tail in rats; assay: Test of hemorrhagic side effects: bleeding time of amputated tail in rats; type: in vivo, SD rats; conditions: intragastric, tail cut 1 h after administration, linear equation fitted
Description: Test of Hemorrhagic Side Effects:
1 h after administration, the rats were anesthetized by intraperitoneal injection of 20% urethane (1 g/kg), and the tail was cut off 5 mm from the tip of the tail, which was then placed in a test tube containing 5 ml normal saline at 37° C. The time from tail cut to cease of bleeding was recorded as the bleeding time. The increasing rate of bleeding time in each dose group was calculated, with the bleeding time of the rats in the control group being 100%.

C/C=C/C(=O)Oc1cc2c(s1)CCN([C@H](C(=O)OC)c1ccccc1Cl)C2 [Compound I-1, Methyl (S,E)-2-(2-chlorophenyl)-2-(2-(2-butenoyloxy)-6,7-dihydrothieno[3,2-c]pyridin-5(4H)-yl)-acetate]
Crystalline form ([1]; crystalline form A of I-1, 0 day): Crystalline form A
Crystalline form ([1]; crystalline form A of I-1, 5 days, High humidity (RH 92.5%)): Crystalline form A
Crystalline form ([1]; crystalline form A of I-1, 5 days, High temperature (60° C.)): Crystalline form A
Crystalline form ([1]; crystalline form A of I-1, 5 days, Light (5000 ± 5000 Lx)): Crystalline form A
Crystalline form ([1]; crystalline form A of I-1, 10 days, High humidity (RH 92.5%)): Crystalline form A
Crystalline form ([1]; crystalline form A of I-1, 10 days, High temperature (60° C.)): Crystalline form A
Crystalline form ([1]; crystalline form A of I-1, 10 days, Light (5000 ± 500 Lx)): Crystalline form A
Crystalline form ([1]; crystalline form A of I-1, 30 days, High humidity (RH 92.5%)): Crystalline form A
Crystalline form ([1]; crystalline form A of I-1, 30 days, High temperature (60° C.)): Crystalline form A
Crystalline form ([1]; crystalline form A of I-1, 30 days, Light (5000 ± 500 Lx)): Crystalline form A
Change of the crystalline form by X-ray powder diffraction ([1]; crystalline form A of I-1, high temperature, high humidity and light for 5, 10 and 30 days): has not changed
ED50 ([2]; Rattus norvegicus, po): 7.89 mg/kg
Inhibition rate (%) ([2]; intragastric 1 mg/kg): 18.3%
Inhibition rate (%) ([2]; intragastric 3 mg/kg): 43.2%
Inhibition rate (%) ([2]; intragastric 10 mg/kg): 56.0%
Inhibition rate (%) ([2]; intragastric 30 mg/kg): 64.2%
Dry weight of thrombus (%) ([2]; intragastric 1 mg/kg): 8.3 ± 2.7
Dry weight of thrombus (%) ([2]; intragastric 3 mg/kg): 5.8 ± 1.4
Dry weight of thrombus (%) ([2]; intragastric 10 mg/kg): 4.5 ± 2.4
Dry weight of thrombus (%) ([2]; intragastric 30 mg/kg): 3.6 ± 0.5
2-Oxo metabolite concentration in human plasma ([3]; 0 min): 0.0412 µM
2-Oxo metabolite in human plasma, % ([3]; 0 min): 4.34%
Concentration of incubated compound in human plasma ([3]; 0 min): 950 nM
Incubated compound in human plasma, % ([3]; 0 min): 100%
Generation of 2-oxo (2-Oxo) product in human plasma [3]: rapidly generate 2-oxo products
2-Oxo metabolite concentration in human plasma ([3]; 5 min): 0.0807 µM
2-Oxo metabolite in human plasma, % ([3]; 5 min): 8.49%
Concentration of incubated compound in human plasma ([3]; 5 min): 872 nM
Incubated compound in human plasma, % ([3]; 5 min): 91.7%
2-Oxo metabolite concentration in human plasma ([3]; 10 min): 0.143 µM
2-Oxo metabolite in human plasma, % ([3]; 10 min): 15.1%
Concentration of incubated compound in human plasma ([3]; 10 min): 782 nM
Incubated compound in human plasma, % ([3]; 10 min): 82.3%
2-Oxo metabolite concentration in human plasma ([3]; 20 min): 0.195 µM
2-Oxo metabolite in human plasma, % ([3]; 20 min): 20.5%
Concentration of incubated compound in human plasma ([3]; 20 min): 575 nM
Incubated compound in human plasma, % ([3]; 20 min): 60.5%
2-Oxo metabolite concentration in human plasma ([3]; 30 min): 0.198 µM
2-Oxo metabolite in human plasma, % ([3]; 30 min): 20.8%
Concentration of incubated compound in human plasma ([3]; 30 min): 425 nM
Incubated compound in human plasma, % ([3]; 30 min): 44.7%
2-Oxo metabolite concentration in human plasma ([3]; 45 min): 0.167 µM
2-Oxo metabolite in human plasma, % ([3]; 45 min): 17.5%
Concentration of incubated compound in human plasma ([3]; 45 min): 266 nM
Incubated compound in human plasma, % ([3]; 45 min): 28.0%
2-Oxo metabolite concentration in human plasma ([3]; 60 min): 0.130 µM
2-Oxo metabolite in human plasma, % ([3]; 60 min): 13.6%
Concentration of incubated compound in human plasma ([3]; 60 min): 174 nM
Incubated compound in human plasma, % ([3]; 60 min): 18.3%
2-Oxo metabolite concentration in human plasma ([3]; 90 min): 0.0535 µM
2-Oxo metabolite in human plasma, % ([3]; 90 min): 5.63%
Concentration of incubated compound in human plasma ([3]; 90 min): 52.2 nM
Incubated compound in human plasma, % ([3]; 90 min): 5.49%
2-Oxo metabolite concentration in human plasma ([3]; 120 min): 0.0224 µM
2-Oxo metabolite in human plasma, % ([3]; 120 min): 2.35%
Concentration of incubated compound in human plasma ([3]; 120 min): 16.2 nM
Incubated compound in human plasma, % ([3]; 120 min): 1.70%
2-Oxo metabolite concentration in human plasma ([3]; 150 min): 0.00857 µM
2-Oxo metabolite in human plasma, % ([3]; 150 min): 0.902%
Concentration of incubated compound in human plasma ([3]; 150 min): 5.31 nM
Incubated compound in human plasma, % ([3]; 150 min): 0.558%
2-Oxo metabolite concentration in human plasma ([3]; 180 min): 0.00397 µM
2-Oxo metabolite in human plasma, % ([3]; 180 min): 0.418%
Concentration of incubated compound in human plasma ([3]; 180 min): 2.19 nM
Incubated compound in human plasma, % ([3]; 180 min): 0.231%
2-Oxo metabolite concentration in human plasma ([3]; 240 min): 0 µM
2-Oxo metabolite in human plasma, % ([3]; 240 min): 0%
Concentration of incubated compound in human plasma ([3]; 240 min): 0 nM
Incubated compound in human plasma, % ([3]; 240 min): 0%
2-Oxo metabolite concentration in human plasma ([3]; 300 min): 0 µM
2-Oxo metabolite in human plasma, % ([3]; 300 min): 0%
Concentration of incubated compound in human plasma ([3]; 300 min): 0 nM
Incubated compound in human plasma, % ([3]; 300 min): 0%
2-Oxo metabolite concentration in human plasma ([3]; 360 min): 0 µM
2-Oxo metabolite in human plasma, % ([3]; 360 min): 0%
Concentration of incubated compound in human plasma ([3]; 360 min): 0 nM
Incubated compound in human plasma, % ([3]; 360 min): 0%
ED200 (dose that doubled the bleeding time) [4]: 1.977 mg/kg

— patent US11466025B2, “Thienopyridine derivatives containing unsaturated aliphatic olefinic bond, preparation method and use thereof” (Tianjin Institute of Pharmaceutical Research Co., Ltd., priority 2017, dated 2022)
